According to patent US12617769B2, “Chemical compound as thyroid hormone beta receptor agonist and use thereof” (SUNSHINE LAKE PHARMA CO., LTD., priority 2019, dated 2026):
pEC50: −log10 of the molar value.

Experiments:
TRα = target: T1, TRα (Homo sapiens, UniProt P10827); experiment: In vitro binding activity, LanthaScreen TR-FRET Thyroid Receptor alfa Coactivator Assay; conditions: TRα-LBD
T1 construct: Then 5 μL of 4×TRα-LBD or TRP-LBD; purchased Invitrogen PV4687
Experimental: (§1) 2. Detection of TRα or TRβ Binding Activity In Vitro of the Compound of the Present Invention
(§2) • LanthaScreen TR-FRET Thyroid Receptor beta Coactivator Assay kit was purchased from Invitrogen, Cat. No. PV4686; • LanthaScreen TR-FRET Thyroid Receptor alfa Coactivator Assay kit was purchased from Invitrogen, Cat. No. PV4687. Test Method:
(§3) This method was tested using LanthaScreen TR-FRET Thyroid Receptor beta/alfa Coactivator Assay kit. The test compound was dissolved in DMSO and diluted three-fold to obtain a total of 10 concentrations, then the compounds were diluted into solutions containing 2% DMSO with TR-FRET Coregulator Buffer C in the kit. 10 μL of the compounds containing 2% DMSO were taken to a 384-well plate. Then 5 μL of 4×TRα-LBD or TRP-LBD and 5 μL of a mixture containing 0.4 μM fluorescein-SRC2-2 and 8 nM Tb anti-GST antibody were added to each well. After mixing well, the compounds were incubated at room temperature in the dark for 1 h. After 1 h, the fluorescence value (RFU) was read at 520 nm and 495 nm using PHERAstar FSX microplate reader from BMG LABTECH. The emission signal at 520 nm was divided by the emission signal at 495 nm to calculate the TR-FRET ratio.

TRβ = target: T2, TRβ (Homo sapiens, UniProt P10828); experiment: In vitro binding activity, LanthaScreen TR-FRET Thyroid Receptor beta Coactivator Assay; conditions: TRβ-LBD
T2 construct: Then 5 μL of 4×TRα-LBD or TRP-LBD; purchased Invitrogen PV4686
T2 sequence (P10828 217-461 limits assumed): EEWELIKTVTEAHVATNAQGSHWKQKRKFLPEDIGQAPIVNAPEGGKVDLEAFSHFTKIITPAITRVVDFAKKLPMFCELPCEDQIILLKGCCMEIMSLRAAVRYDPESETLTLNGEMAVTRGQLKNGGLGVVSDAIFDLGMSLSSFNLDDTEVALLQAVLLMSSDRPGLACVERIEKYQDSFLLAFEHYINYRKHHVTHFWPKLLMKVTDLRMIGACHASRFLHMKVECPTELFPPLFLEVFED
Experimental: as §1, §2, §3

T1 sequence (P10827 163-410 isoform P10827-2 limits assumed, other chains not shown): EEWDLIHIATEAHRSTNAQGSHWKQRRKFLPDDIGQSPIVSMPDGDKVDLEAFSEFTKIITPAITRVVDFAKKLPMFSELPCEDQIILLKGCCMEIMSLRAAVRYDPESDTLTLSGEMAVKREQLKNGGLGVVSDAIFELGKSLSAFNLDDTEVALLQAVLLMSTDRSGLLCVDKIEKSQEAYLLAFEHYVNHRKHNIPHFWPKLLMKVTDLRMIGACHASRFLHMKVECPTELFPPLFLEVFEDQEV

SMILES	pEC50 (TRα)	pEC50 (TRβ)
N#Cc1nn(-c2cc(Cl)c(Oc3ccc(=O)n(Cc4cccc(C(F)(F)F)c4)c3)c(Cl)c2)c(=O)[nH]c1=O [Example 14, 2-[3,5-dichloro-4-[[6-oxo-1-[3-(trifluoromethyl)benzyl]-1,6-dihydropyridin-3-yl]oxy]phenyl]-3,5-dioxo-1,2,4-triazine-6-carbonitrile]	5.24	6.46
N#Cc1nn(-c2cc(Cl)c(Oc3ccc(=O)n(Cc4ccc(OC(F)(F)F)cc4)c3)c(Cl)c2)c(=O)[nH]c1=O [Example 12, 2-[3,5-dichloro-4[[6-oxo-1-[4-(trifluoromethoxy)benzyl]-1,6-dihydropyridin-3-yl]oxy]phenyl]-3,5-dioxo-1,2,4-triazine-6-carbonitrile]	< 4.00	5.87
N#Cc1nn(-c2cc(Cl)c(Oc3ccc(=O)n(Cc4ccc(F)c(F)c4)c3)c(Cl)c2)c(=O)[nH]c1=O [Example 11, 2-[3,5-dichloro-4-[[1-(3,4-difluorobenzyl)-6-oxo-1,6-dihydropyridin-3-yl]oxy]phenyl]-3,5-dioxo-1,2,4-triazine-6-carbonitrile]	6.17	7.66
CCOC(=O)c1nn(-c2cc(Cl)c(Oc3ccc(=O)n(Cc4ccccc4)c3)c(Cl)c2)c(=O)[nH]c1=O [Example 27, Ethyl 2-(4-((1-benzyl-6-oxo-1,6-dihydropyridin-3-yl)oxy)-3,5-dichlorophenyl)-3,5-dioxo-1,2,4-triazine-6-carboxylate]	< 4.00	5.83
N#Cc1nn(-c2cc(Br)c(Oc3ccc(=O)n(Cc4ccccc4)c3)c(Br)c2)c(=O)[nH]c1=O [Example 35, 2-(4-((1-benzyl-6-oxo-1,6-dihydropyridin-3-yl)oxy)-3,5-dibromophenyl)-3,5-dioxo-2,3,4,5-tetrahydro-1,2,4-triazine-6-carbonitrile]	6.33	7.77
N#Cc1nn(-c2cc(Cl)c(Oc3ccc(=O)n(CC4CCOCC4)c3)c(Cl)c2)c(=O)[nH]c1=O [Example 25, 2-[3,5-dichloro-4-[[6-oxo-1-((tetrahydropyran-4-yl)methyl)-1,6-dihydropyridin-3-yl]oxy]phenyl]-3,5-dioxo-1,2,4-triazine-6-carbonitrile]	5.18	6.85
CC(C)n1cc(Oc2c(Cl)cc(-n3nc(C#N)c(=O)[nH]c3=O)cc2Cl)ccc1=O [Example 4, 2-[3,5-dichloro-4-[(1-isopropyl-6-oxo-1,6-dihydropyridin-3-yl)oxy]phenyl]-3,5-dioxo-1,2,4-triazine-6-carbonitrile]	< 4.00	6.30
CCOC(=O)Cn1cc(Oc2c(Cl)cc(-n3nc(C#N)c(=O)[nH]c3=O)cc2Cl)ccc1=O [Example 17, Ethyl 2-[5-[2,6-dichloro-4-(6-cyano-3,5-dioxo-1,2,4-triazin-2-yl)phenoxy]-2-oxy-pyridine-1(2H)-yl] acetate]	4.81	6.46
O=c1cnn(-c2cc(Cl)c(Oc3ccc(=O)n(Cc4ccc(F)cc4)c3)c(Cl)c2)c(=O)[nH]1 [Example 36, 2-(3,5-dichloro-4-((1-(4-fluorobenzyl)-6-oxo-1,6-dihydropyridin-3-yl)oxy)phenyl)-1,2,4-triazine-3,5(2H,4H)-dione]	7.04	> 8.34
CCOC(=O)Cn1nc(Oc2c(Cl)cc(-n3nc(C#N)c(=O)[nH]c3=O)cc2Cl)ccc1=O [Example 19, Ethyl 2-[3-[2,6-dichloro-4-(6-cyano-3,5-dioxo-1,2,4-triazin-2-yl)phenoxy]-6-oxy-pyridazine-1(6H)-yl] acetate]	< 4.00	< 5.00
N#Cc1nn(-c2cc(Cl)c(Oc3cnc(=O)n(Cc4ccc(F)cc4)c3)c(Cl)c2)c(=O)[nH]c1=O [Example 20, 2-[3,5-dichloro-4-[1-(4-fluorobenzyl)-2-oxo-1,2-dihydropyrimidin-5-yl]oxy-phenyl]-3,5-dioxo-1,2,4-triazine-6-carbonitrile]	< 4.00	5.13
COCCn1cc(Oc2c(Cl)cc(-n3nc(C#N)c(=O)[nH]c3=O)cc2Cl)ccc1=O [Example 18, 2-[3,5-dichloro-4-[[1-(2-methoxyethyl)-6-oxo-1,6-dihydropyridin-3-yl]oxy]phenyl]-3,5-dioxo-1,2,4-triazine-6-carbonitrile]	5.87	7.07
N#Cc1nn(-c2cc(Cl)c(Oc3ccc(=O)n(CCO)c3)c(Cl)c2)c(=O)[nH]c1=O [Example 32, 2-(3,5-dichloro-4-((1-(2-hydroxyethyl)-6-oxo-1,6-dihydropyridin-3-yl)oxy)phenyl)-3,5-dioxo-2,3,4,5-tetrahydro-1,2,4-triazine-6-carbonitrile]	4.64	5.82
N#Cc1nn(-c2cc(Cl)c(Oc3ccc(=O)n(-c4ccc(F)cc4)n3)c(Cl)c2)c(=O)[nH]c1=O [Example 8, 2-[3,5-dichloro-4-[1-(4-fluorophenyl)-6-oxo-1,6-dihydropyridazin-3-yl]oxy-phenyl]-3,5-dioxo-1,2,4-triazine-6-carbonitrile]	< 4.00	< 5.00
CC(c1ccccc1)n1nc(Oc2c(Cl)cc(-n3nc(C#N)c(=O)[nH]c3=O)cc2Cl)ccc1=O (centres unmarked) [Example 9, 2-[3,5-dichloro-4-[[6-oxo-1-(1-phenethyl)-1,6-dihydropyridazin-3-yl]oxyl]phenyl]-3,5-dioxo-1,2,4-triazine-6-carbonitrile]	< 4.00	< 5.00
COc1ccc(Cn2cc(Oc3c(Cl)cc(-n4nc(C#N)c(=O)[nH]c4=O)cc3Cl)ccc2=O)cc1 [Example 31, 2-(3,5-dichloro-4-((1-(4-methoxybenzyl)-6-oxo-1,6-dihydropyridin-3-yl)oxy)phenyl)-3,5-dioxo-2,3,4,5-tetrahydro-1,2,4-triazine-6-carbonitrile]	5.36	7.03

Now from value to compound:

pEC50 (TRα)	pEC50 (TRβ)	SMILES
5.49	6.64	O=c1[nH]c(=O)n(-c2cc(Cl)c(Oc3ccc(=O)n(Cc4ccccc4)c3)c(Cl)c2)nc1CO [Example 33, 2-(4-((1-benzyl-6-oxo-1,6-dihydropyridin-3-yl)oxy)-3,5-dichlorophenyl)-6-(hydroxymethyl)-1,2,4-triazine-3,5(2H,4H)-dione]
< 4.00	6.16	COc1cccc(Cn2cc(Oc3c(Cl)cc(-n4nc(C#N)c(=O)[nH]c4=O)cc3Cl)ccc2=O)c1 [Example 22, 2-[3,5-dichloro-4-[[1-[(3-methoxyphenyl)methyl]-6-oxopyridin-3-yl]oxy]phenyl]-3,5-dioxo-1,2,4-triazine-6-carbonitrile]
< 4.00	6.61	Cc1cc(Oc2c(Cl)cc(-n3nc(C#N)c(=O)[nH]c3=O)cc2Cl)cn(Cc2ccccc2)c1=O [Example 37, 2-(4-((1-benzyl-5-methyl-6-oxo-1,6-dihydropyridin-3-yl)oxy)-3,5-dichlorophenyl)-3,5-dioxo-2,3,4,5-tetrahydro-1,2,4-triazine-6-carbonitrile]
5.52	7.22	N#Cc1nn(-c2cc(Cl)c(Oc3ccc(=O)n(Cc4ccccc4)c3)c(Cl)c2)c(=O)[nH]c1=O [Example 1, 2-[4-[(1-benzyl-6-oxo-1,6-dihydropyridin-3-yl)oxy]-3,5-dichlorophenyl]-3,5-dioxo-1,2,4-triazine-6-carbonitrile]
< 4.48	6.42	N#Cc1nn(-c2cc(Cl)c(Oc3cc(Cl)c(=O)n(Cc4ccccc4)c3)c(Cl)c2)c(=O)[nH]c1=O [Example 38, 2-(4-((1-benzyl-5-chloro-6-oxo-1,6-dihydropyridin-3-yl)oxy)-3,5-dichlorophenyl)-3,5-dioxo-2,3,4,5-tetrahydro-1,2,4-triazine-6-carbonitrile]
5.52	7.22	Cc1ccc(Cn2cc(Oc3c(Cl)cc(-n4nc(C#N)c(=O)[nH]c4=O)cc3Cl)ccc2=O)cc1 [Example 23, 2-[3,5-dichloro-4-[[1-(4-methylbenzyl)-6-oxo-1,6-dihydropyridin-3-yl]oxy]phenyl]-3,5-dioxo-1,2,4-triazine-6-carbonitrile]
5.14	6.44	Cc1cc(-n2nc(C#N)c(=O)[nH]c2=O)cc(C)c1Oc1ccc(=O)n(Cc2ccccc2)c1 [Example 34, 2-(4-((1-benzyl-6-oxo-1,6-dihydropyridin-3-yl)oxy)-3,5-dimethylphenyl)-3,5-dioxo-2,3,4,5-tetrahydro-1,2,4-triazine-6-carbonitrile]
< 4.00	< 5.00	N#Cc1nn(-c2cc(Cl)c(Oc3ccc(=O)n(Cc4ccccc4)n3)c(Cl)c2)c(=O)[nH]c1=O [Example 2, 2-[4-(1-benzyl-6-oxo-1,6-dihydropyridazin-3-yl)oxy-3,5-dichlorophenyl]-3,5-dioxo-1,2,4-triazine-6-carbonitrile]
< 4.00	5.42	NC(=O)c1nn(-c2cc(Cl)c(Oc3ccc(=O)n(Cc4ccccc4)c3)c(Cl)c2)c(=O)[nH]c1=O [Example 30, 2-(4-((1-benzyl-6-oxo-1,6-dihydropyridin-3-yl)oxy)-3,5-dichlorophenyl)-3,5-dioxo-2,3,4,5-tetrahydro-1,2,4-triazine-6-carboxamide]
